From PubChem BioAssay (NCI)
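Cultured in 96-well plates, cells were exposed to test compound for 48 hours across five concentrations. GI50 = concentration required for 50% inhibition of growth. At the TGI there is no net growth.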

Experiments:
Test in all cases: growth of human tumour cells (NCI), 48 h
EKVX NSCLC = test system: EKVX NSCLC
HCT-116 colon = test system: HCT-116 colon
HCT-15 colon = test system: HCT-15 colon
LOX IMVI melanoma = test system: LOX IMVI melanoma
MOLT-4 leukemia = test system: MOLT-4 leukemia
RPMI-8226 leukemia = test system: RPMI-8226 leukemia
SF-295 CNS = test system: SF-295 CNS
SR leukemia = test system: SR leukemia
UACC-257 melanoma = test system: UACC-257 melanoma
CCRF-CEM leukemia = test system: CCRF-CEM leukemia

SMILES	TGI (EKVX NSCLC)	TGI (HCT-116 colon)	TGI (HCT-15 colon)	TGI (LOX IMVI melanoma)	TGI (MOLT-4 leukemia)	TGI (RPMI-8226 leukemia)	TGI (SF-295 CNS)	TGI (SR leukemia)	TGI (UACC-257 melanoma)	TGI (CCRF-CEM leukemia)	GI50 (EKVX NSCLC)	GI50 (HCT-116 colon)	GI50 (HCT-15 colon)	GI50 (LOX IMVI melanoma)	GI50 (MOLT-4 leukemia)	GI50 (RPMI-8226 leukemia)	GI50 (SF-295 CNS)	GI50 (SR leukemia)	GI50 (UACC-257 melanoma)	GI50 (CCRF-CEM leukemia)
O=C(Nc1nc2ncn(CC(COc3ccccc3)OC(=O)c3ccccc3)c2c(=O)[nH]1)c1ccccc1 (configuration not stated)	> 100 µM	> 100 µM	> 100 µM	> 100 µM	> 100 µM	> 100 µM	> 100 µM	> 100 µM	> 100 µM	–	–	–	–	–	–	–	–	–	–	–
O=C(NO)C12C3C4C1C1C2C3C41C(=O)NO (configuration not stated)	> 100 µM	> 100 µM	> 100 µM	> 100 µM	> 100 µM	> 100 µM	> 100 µM	–	–	> 100 µM	–	–	–	–	–	–	–	–	–	–
Cc1ccccc1CN1CC=c2ccccc2=N1	> 100 µM	–	> 100 µM	> 100 µM	–	> 100 µM	> 100 µM	–	> 100 µM	> 100 µM	–	–	–	–	–	–	–	–	–	–
COc1cc(-n2cc(-c3ccc(Cl)cc3)[nH]c2=O)cc(OC)c1OC	> 100 µM	> 100 µM	> 100 µM	> 100 µM	> 100 µM	> 100 µM	> 100 µM	> 100 µM	> 100 µM	–	34.1 µM	35.4 µM	> 100 µM	59.9 µM	> 100 µM	12.6 µM	30.9 µM	> 100 µM	46.8 µM	–
Cc1cc(Cl)ccc1N=C1NC(=O)C(CC(=O)Nc2ccc(Cl)cc2Cl)S1 (configuration not stated)	> 100 µM	–	> 100 µM	> 100 µM	> 100 µM	> 100 µM	> 100 µM	–	> 100 µM	> 100 µM	–	–	–	–	–	–	–	–	–	–
COc1ccc(C2=NN(C(C)=O)C(c3cn(-c4ccccc4)nc3-c3ccc(Cl)cc3)C2)cc1 (configuration not stated)	> 100 µM	> 100 µM	> 100 µM	> 100 µM	> 100 µM	> 100 µM	> 100 µM	–	> 100 µM	> 100 µM	> 100 µM	> 100 µM	–	> 100 µM	> 100 µM	> 100 µM	13.2 µM	–	> 100 µM	> 100 µM
CC1C=CC(=O)C(n2cc(F)c(=O)[nH]c2=O)O1 (configuration not stated)	50.9 µM	29.1 µM	42.4 µM	33.6 µM	48.7 µM	38.7 µM	–	–	30 µM	34.4 µM	–	–	–	–	–	–	–	–	–	–
Nc1ccn(C2CC(CO)C(O)C2O)c(=O)n1 (configuration not stated)	> 57.7 µM	> 57.7 µM	> 57.7 µM	–	> 57.7 µM	> 57.7 µM	–	> 57.7 µM	> 57.7 µM	–	–	–	–	–	–	–	–	–	–	–
NCCNC(=S)S	> 100 µM	> 100 µM	> 100 µM	> 100 µM	77.9 µM	58.8 µM	> 100 µM	–	> 100 µM	90.6 µM	–	–	–	–	–	–	–	–	–	–
Cc1[nH]c(=O)[nH]c(=O)c1CO	–	> 100 µM	> 100 µM	> 100 µM	> 100 µM	–	–	> 100 µM	> 100 µM	> 100 µM	–	> 100 µM	> 100 µM	> 100 µM	> 100 µM	–	–	> 100 µM	> 100 µM	> 100 µM
C1=Cc2nc1c(-c1ccncc1)c1ccc([n-]1)c(-c1ccncc1)c1nc(c(-c3ccncc3)c3ccc([n-]3)c2-c2ccncc2)C=C1.[Zn+2]	> 100 µM	> 100 µM	> 100 µM	> 100 µM	> 100 µM	> 100 µM	> 100 µM	–	> 100 µM	> 100 µM	–	–	–	–	–	–	–	–	–	–
Cc1ccccc1C(C#N)C(=O)C(=O)Nc1cccc(Cl)c1 (configuration not stated)	> 100 µM	> 100 µM	> 100 µM	34.1 µM	> 100 µM	62.1 µM	> 100 µM	–	> 100 µM	> 100 µM	–	–	–	–	–	–	–	–	–	–
NC(=S)N/N=C1/C(=O)N(c2ccc(Cl)cc2Cl)C(=O)C(=O)C1c1nc2ccccc2s1 (configuration not stated)	> 100 µM	> 100 µM	> 100 µM	> 100 µM	> 100 µM	> 100 µM	> 100 µM	–	> 100 µM	–	–	–	–	–	–	–	–	–	–	–
COc1ccc(/C=C2\CCC(C)(CN(C)C)C2=O)cc1 (configuration not stated)	> 100 µM	> 100 µM	> 100 µM	> 100 µM	> 100 µM	> 100 µM	> 100 µM	–	> 100 µM	–	–	–	–	–	–	–	–	–	–	–
Cc1nc(NC(=O)CCCN2C(=O)c3cccc4cccc(c34)C2=O)sc1C(=O)Nc1cc(C(=O)NCCCN(C)C)n(C)c1	> 100 µM	> 100 µM	> 100 µM	> 100 µM	> 100 µM	> 100 µM	> 100 µM	> 100 µM	–	–	> 100 µM	> 100 µM	> 100 µM	> 100 µM	> 100 µM	> 100 µM	> 100 µM	> 100 µM	–	–
COC(=O)C(Cl)=C1CC1	–	–	57.6 µM	59.6 µM	53.4 µM	60.4 µM	> 100 µM	–	> 100 µM	42.2 µM	–	–	–	–	–	–	–	–	–	–
